# In patent US20200199102A1, “COMPOUNDS THAT PARTICIPATE IN COOPERATIVE BINDING AND USES THEREOF” (Revolution Medicines, Inc., priority 2017, published 2020):
# Where a SMILES comes first, the peptide text is derived from it. [ ]: non-standard residue; d: D form. MeBmt = C/C=C/C[C@@H](C)[C@@H](O)[C@H](NC)C(=O)O; NMeY = CN[C@@H](Cc1ccc(O)cc1)C(=O)O; NMeF = CN[C@@H](Cc1ccccc1)C(=O)O; NMeI = CC[C@H](C)[C@H](NC)C(=O)O; NMeT = CN[C@H](C(=O)O)[C@@H](C)O; NMeL = CN[C@@H](CC(C)C)C(=O)O; dNMeV = CN[C@@H](C(=O)O)C(C)C; NMeNle = CCCC[C@H](NC)C(=O)O; NMeNva = CCC[C@H](NC)C(=O)O; NMeV = CN[C@H](C(=O)O)C(C)C; NMeA = CN[C@@H](C)C(=O)O; dNMeA = CN[C@H](C)C(=O)O; Abu = CC[C@H](N)C(=O)O; Sar = CNCC(=O)O
# Target: T1, Cyclophilin A (Homo sapiens, UniProt P62937)
# T1 construct: made in house
# T1 sequence (P62937 whole entry, species assumed): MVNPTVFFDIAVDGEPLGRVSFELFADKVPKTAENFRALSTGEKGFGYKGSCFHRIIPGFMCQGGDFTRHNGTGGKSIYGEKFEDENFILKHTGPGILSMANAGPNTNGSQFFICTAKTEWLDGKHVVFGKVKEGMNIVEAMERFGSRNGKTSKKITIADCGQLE
# Experiment: AlphaLISA inhibition of binding of biotinylated Cyclosporin A to FLAG tagged Cyclophilin A
# Conditions: for % signal: AlphaLISA signal; for % signal / % inhibition of CsA binding to Cyclophilin A: test concentration not given; for IC50: read-out: IC50 value of CsA binding to Cyclophilin A
# Procedure, shortened: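 Inhibition of biotin-CsA binding to FLAG-tagged Cyclophilin A read by AlphaLISA (ex 680, em 615 nm). Working stocks were 6 nM biotinylated CsA and 25 nM FLAG-CypA; beads and compound were combined first for 30 min, then protein added for 60 min, all at room temperature in the dark, with DMSO and cyclosporin A controls.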
SMILES,% signal [%],IC50 [nM],% inhibition of CsA binding to Cyclophilin A [%]
C/C=C/C[C@@H](C)[C@@H](O)[C@H]1C(=O)N[C@@H](CC)C(=O)N(C)CC(=O)N(C)[C@@H](Cc2ccccc2)C(=O)N[C@@H](C(C)C)C(=O)N(C)[C@@H](C)C(=O)N[C@@H](CC(C)C)C(=O)N[C@H](C)C(=O)N(C)[C@@H](CC(C)C)C(=O)N(C)[C@@H](CC(C)C)C(=O)N(C)[C@@H](C(C)C)C(=O)N1C [Compound C84] (cyclo([MeBmt][Abu][Sar][NMeF]V[NMeA]L[dA][NMeL][NMeL][NMeV])),6.81,< 2000,93.19
C/C=C/C[C@@H](C)[C@@H](O)[C@H]1C(=O)N[C@@H](CC)C(=O)N(C)CC(=O)N(C)CC(=O)N[C@@H](C(C)C)C(=O)N(C)[C@@H](C)C(=O)N[C@@H](CC(C)C)C(=O)N[C@H](C)C(=O)N(C)[C@@H](CC(C)C)C(=O)N(C)[C@@H](CC(C)C)C(=O)N(C)[C@@H](C(C)C)C(=O)N1C [Compound C85] (cyclo([MeBmt][Abu][Sar][Sar]V[NMeA]L[dA][NMeL][NMeL][NMeV])),0.87,< 2000,99.13
C/C=C/C[C@@H](C)[C@@H](O)[C@H]1C(=O)N[C@@H](CC)C(=O)N(C)CC(=O)N(C)[C@@H](CC(C)C)C(=O)N[C@@H](C(C)C)C(=O)N(C)[C@@H](C)C(=O)N[C@@H](CC(C)C)C(=O)N[C@H](C)C(=O)N(C)[C@@H](CC(C)C)C(=O)N(C)[C@@H](CC(C)C)C(=O)N(C)[C@@H](C(C)C)C(=O)N1C [Compound C86] (cyclo([MeBmt][Abu][Sar][NMeL]V[NMeA]L[dA][NMeL][NMeL][NMeV])),17.23,< 2000,82.77
C/C=C/C[C@@H](C)[C@@H](O)[C@H]1C(=O)N[C@@H](CC)C(=O)N(C)CC(=O)N(C)[C@@H](Cc2ccc(O)cc2)C(=O)N[C@@H](C(C)C)C(=O)N(C)[C@@H](C)C(=O)N[C@@H](CC(C)C)C(=O)N[C@H](C)C(=O)N(C)[C@@H](CC(C)C)C(=O)N(C)[C@@H](CC(C)C)C(=O)N(C)[C@@H](C(C)C)C(=O)N1C [Compound C88] (cyclo([MeBmt][Abu][Sar][NMeY]V[NMeA]L[dA][NMeL][NMeL][NMeV])),5.94,< 2000,94.06
C/C=C/C[C@@H](C)[C@@H](O)[C@H]1C(=O)N[C@@H](CC)C(=O)N(C)CC(=O)N(C)[C@@H](CCC)C(=O)N[C@@H](C(C)C)C(=O)N(C)[C@@H](C)C(=O)N[C@@H](CC(C)C)C(=O)N[C@H](C)C(=O)N(C)[C@@H](CC(C)C)C(=O)N(C)[C@@H](CC(C)C)C(=O)N(C)[C@@H](C(C)C)C(=O)N1C [Compound C90] (cyclo([Abu][Sar][NMeNva]V[NMeA]L[dA][NMeL][NMeL][NMeV][MeBmt])),6.46,< 2000,93.54
C/C=C/C[C@@H](C)[C@@H](O)[C@H]1C(=O)N[C@@H](CC)C(=O)N(C)CC(=O)N(C)[C@@H](CCCC)C(=O)N[C@@H](C(C)C)C(=O)N(C)[C@@H](C)C(=O)N[C@@H](CC(C)C)C(=O)N[C@H](C)C(=O)N(C)[C@@H](CC(C)C)C(=O)N(C)[C@@H](CC(C)C)C(=O)N(C)[C@@H](C(C)C)C(=O)N1C [Compound C92] (cyclo([Abu][Sar][NMeNle]V[NMeA]L[dA][NMeL][NMeL][NMeV][MeBmt])),9.00,< 2000,91.00
C/C=C/C[C@@H](C)[C@@H](O)[C@H]1C(=O)N[C@@H](CC)C(=O)N(C)CC(=O)N(C)[C@@H]([C@@H](C)CC)C(=O)N[C@@H](C(C)C)C(=O)N(C)[C@@H](CC(C)C)C(=O)N[C@@H](CC)C(=O)N[C@H](C)C(=O)N(C)[C@@H](CC(C)C)C(=O)N(C)[C@@H](CC(C)C)C(=O)N(C)[C@@H](C(C)C)C(=O)N1C [Compound C93] (cyclo([Abu][Sar][NMeI]V[NMeL][Abu][dA][NMeL][NMeL][NMeV][MeBmt])),1.28,< 2000,98.72
C/C=C/C[C@@H](C)[C@@H](O)[C@H]1C(=O)N[C@@H](CC)C(=O)N(C)CC(=O)N(C)[C@@H](C)C(=O)N[C@@H](C(C)C)C(=O)N(C)[C@@H](CC(C)C)C(=O)N[C@@H](CC)C(=O)N[C@H](C)C(=O)N(C)[C@@H](CC(C)C)C(=O)N(C)[C@@H](CC(C)C)C(=O)N(C)[C@@H](C(C)C)C(=O)N1C [Compound C94] (cyclo([Abu][Sar][NMeA]V[NMeL][Abu][dA][NMeL][NMeL][NMeV][MeBmt])),3.71,< 2000,96.29

# Next, values leading:
% signal [%],IC50 [nM],% inhibition of CsA binding to Cyclophilin A [%],SMILES
0.77,< 2000,99.23,C/C=C/C[C@@H](C)[C@@H](O)[C@H]1C(=O)N[C@@H](CC)C(=O)N(C)CC(=O)N(C)[C@@H](C)C(=O)N[C@@H](C(C)C)C(=O)N(C)[C@@H](C)C(=O)N[C@@H](CC(C)C)C(=O)N[C@H](C)C(=O)N(C)[C@@H](CC(C)C)C(=O)N(C)[C@@H](CC(C)C)C(=O)N(C)[C@@H](C(C)C)C(=O)N1C [Compound C82] (cyclo([MeBmt][Abu][Sar][NMeA]V[NMeA]L[dA][NMeL][NMeL][NMeV]))
0.65,< 2000,–,C/C=C/C[C@@H](C)[C@@H](O)[C@H]1C(=O)N[C@@H](CC)C(=O)N(C)CC(=O)N(C)[C@H](C)C(=O)N[C@@H](C(C)C)C(=O)N(C)[C@@H](C)C(=O)N[C@@H](CC(C)C)C(=O)N[C@H](C)C(=O)N(C)[C@@H](CC(C)C)C(=O)N(C)[C@@H](CC(C)C)C(=O)N(C)[C@@H](C(C)C)C(=O)N1C [Compound C83] (cyclo([MeBmt][Abu][Sar][dNMeA]V[NMeA]L[dA][NMeL][NMeL][NMeV]))
4.53,< 2000,95.47,C/C=C/C[C@@H](C)[C@@H](O)[C@H]1C(=O)N[C@@H](CC)C(=O)N(C)CC(=O)N(C)[C@@H]([C@@H](C)O)C(=O)N[C@@H](C(C)C)C(=O)N(C)[C@@H](C)C(=O)N[C@@H](CC(C)C)C(=O)N[C@H](C)C(=O)N(C)[C@@H](CC(C)C)C(=O)N(C)[C@@H](CC(C)C)C(=O)N(C)[C@@H](C(C)C)C(=O)N1C [Compound C87] (cyclo([MeBmt][Abu][Sar][NMeT]V[NMeA]L[dA][NMeL][NMeL][NMeV]))
3.10,< 2000,96.90,C/C=C/C[C@@H](C)[C@@H](O)[C@H]1C(=O)N[C@@H](CC)C(=O)N(C)CC(=O)N(C)[C@@H](C(C)C)C(=O)N[C@@H](C(C)C)C(=O)N(C)[C@@H](C)C(=O)N[C@@H](CC(C)C)C(=O)N[C@H](C)C(=O)N(C)[C@@H](CC(C)C)C(=O)N(C)[C@@H](CC(C)C)C(=O)N(C)[C@@H](C(C)C)C(=O)N1C [Compound C89] (cyclo([MeBmt][Abu][Sar][NMeV]V[NMeA]L[dA][NMeL][NMeL][NMeV]))
5.17,< 2000,94.83,C/C=C/C[C@@H](C)[C@@H](O)[C@H]1C(=O)N[C@@H](CC)C(=O)N(C)CC(=O)N(C)[C@H](C(C)C)C(=O)N[C@@H](C(C)C)C(=O)N(C)[C@@H](C)C(=O)N[C@@H](CC(C)C)C(=O)N[C@H](C)C(=O)N(C)[C@@H](CC(C)C)C(=O)N(C)[C@@H](CC(C)C)C(=O)N(C)[C@@H](C(C)C)C(=O)N1C [Compound C91] (cyclo([Abu][Sar][dNMeV]V[NMeA]L[dA][NMeL][NMeL][NMeV][MeBmt]))
